Laboratory results published in ChEMBL document CHEMBL1126935, “N-acyl-L-tryptophan benzyl esters: potent substance P receptor antagonists” (J Med Chem, 1993).

molecular target: Substance-P receptor (Homo sapiens, UniProt P25103); assay: Tested against cloned human NK1 receptor by displacement of 125 I -labeled substance P expressed in CHO cells; format: cell-based
Sequence (P25103 whole entry): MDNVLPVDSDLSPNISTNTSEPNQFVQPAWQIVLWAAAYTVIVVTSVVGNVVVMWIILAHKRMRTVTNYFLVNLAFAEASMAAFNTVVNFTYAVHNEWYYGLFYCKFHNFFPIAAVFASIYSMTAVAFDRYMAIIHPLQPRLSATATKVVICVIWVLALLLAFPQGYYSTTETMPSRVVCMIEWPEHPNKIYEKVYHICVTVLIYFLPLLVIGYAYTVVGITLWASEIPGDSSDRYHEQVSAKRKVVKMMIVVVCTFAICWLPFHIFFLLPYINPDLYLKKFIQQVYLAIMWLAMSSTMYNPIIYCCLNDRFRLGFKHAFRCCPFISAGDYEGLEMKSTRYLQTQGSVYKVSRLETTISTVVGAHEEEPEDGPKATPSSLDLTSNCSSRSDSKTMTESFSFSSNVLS

SMILES | IC50 [µM]
COc1ccccc1COC(=O)[C@H](Cc1c[nH]c2ccccc12)NC(=O)OC(C)(C)C | 0.28
N[C@@H](Cc1c[nH]c2ccccc12)C(=O)OCc1ccccc1 | > 10
Cc1cc(C)cc(COC(=O)[C@H](Cc2c[nH]c3ccccc23)N(C)C)c1 | 0.553
Cc1cc(C)cc(COC(=O)[C@H](Cc2c[nH]c3ccccc23)[N+](C)(C)C)c1 | 0.125
Cc1cc(C)cc(COC(=O)[C@@H](N)Cc2c[nH]c3ccccc23)c1 | 1.53
CC(=O)N[C@@H](Cc1c[nH]c2ccccc12)C(=O)OCc1cc(C)cc(C)c1 [L-708568] | 0.067
CC(C)(C)OC(=O)N[C@@H](Cc1c[nH]c2ccccc12)C(=O)OCc1ccccc1 | 0.413
